{
  "source": "patent US9339030B2",
  "about": "“Foamable pesticide compositions and methods of application” (BASF Corporation, priority 2009, dated 2016)",
  "origin": "cited, not measured here",
  "key": {"termites": {"test_system": "termites", "conditions": "general statement, no experiment described"}, "ants": {"test_system": "ants", "conditions": "general statement, no experiment described"}},
  "data": [
    {"smiles": "N#Cc1nn(-c2c(Cl)cc(C(F)(F)F)cc2Cl)c(N)c1[S+]([O-])C(F)(F)F", "note": "(racemic) [fipronil, (±)-5-amino-1-(2,6-dichloro-α,α,α-trifluoro-p-tolyl)-4-trifluoromethylsulfinylpyrazole-3-carbonitrile]", "values": [
      {"measurement": "dose toxic to termites", "setting": "termites", "value": 2, "unit": "nanograms per termite"},
      {"measurement": "dose toxic to ants", "setting": "ants", "value": "about 1 nanogram per ant"}
    ]}
  ]
}
